This note sets out measurements from paper PMC2788219, “The Acrylamide (S)-2 As a Positive and Negative Modulator of Kv7 Channels Expressed in Xenopus laevis Oocytes” (PLoS ONE, 2009).

What all share (assay type): cell-based
Assay [1] has as its target T1, Kv7.4 (Homo sapiens, UniProt P56696).
T1 construct: gene KCNQ4
T1 sequence (P56696 1-695): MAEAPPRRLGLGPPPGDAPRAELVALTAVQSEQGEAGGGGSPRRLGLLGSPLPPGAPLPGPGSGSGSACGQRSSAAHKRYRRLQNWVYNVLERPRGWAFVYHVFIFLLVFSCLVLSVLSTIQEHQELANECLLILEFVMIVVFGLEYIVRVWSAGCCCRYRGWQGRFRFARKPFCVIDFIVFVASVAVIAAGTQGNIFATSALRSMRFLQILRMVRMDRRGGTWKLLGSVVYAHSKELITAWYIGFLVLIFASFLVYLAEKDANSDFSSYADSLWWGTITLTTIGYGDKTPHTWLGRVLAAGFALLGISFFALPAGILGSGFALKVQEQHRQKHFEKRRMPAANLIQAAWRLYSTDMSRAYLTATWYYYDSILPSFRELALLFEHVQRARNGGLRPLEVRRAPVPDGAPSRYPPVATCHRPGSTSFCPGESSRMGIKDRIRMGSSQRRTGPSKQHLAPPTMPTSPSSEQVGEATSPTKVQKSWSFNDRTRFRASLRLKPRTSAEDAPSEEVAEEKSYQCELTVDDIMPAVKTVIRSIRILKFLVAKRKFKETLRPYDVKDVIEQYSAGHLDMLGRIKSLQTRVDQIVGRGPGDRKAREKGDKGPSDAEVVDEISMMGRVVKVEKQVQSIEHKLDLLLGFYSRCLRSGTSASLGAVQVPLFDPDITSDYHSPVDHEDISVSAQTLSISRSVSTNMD
Briefly: […] flux in transfected CHO cells; two-electrode voltage clamp in Xenopus oocytes; W242L loss of sensitivity. In general terms: Two-electrode voltage clamp is typically applied to oocytes expressing channels or transporters.

In assay [2] the target is T2, Kv7.2 (Homo sapiens, UniProt O43526).
T2 construct: gene KCNQ2
Briefly: […] flux in transfected CHO cells; two-electrode voltage clamp in Xenopus oocytes.

Assay [3] has as its target T3, Kv7.5 (Homo sapiens, UniProt Q9NR82).
T3 construct: gene KCNQ5
Briefly: two-electrode voltage clamp in Xenopus oocytes, […]; current […] of control at +[…] mV. As to conditions: read-out: % of control current at +40 mV (10 μM).

The target in assay [4] is T4, Kv7.2-W236L (Homo sapiens, UniProt O43526, W236L).
T4 construct: gene KCNQ2
Briefly: […] flux in transfected CHO cells; two-electrode voltage clamp in Xenopus oocytes (inhibition).

The target of assay [5] is T5, Kv7.1 (Homo sapiens, UniProt P51787).
T5 construct: gene KCNQ1
T5 sequence (P51787 1-676): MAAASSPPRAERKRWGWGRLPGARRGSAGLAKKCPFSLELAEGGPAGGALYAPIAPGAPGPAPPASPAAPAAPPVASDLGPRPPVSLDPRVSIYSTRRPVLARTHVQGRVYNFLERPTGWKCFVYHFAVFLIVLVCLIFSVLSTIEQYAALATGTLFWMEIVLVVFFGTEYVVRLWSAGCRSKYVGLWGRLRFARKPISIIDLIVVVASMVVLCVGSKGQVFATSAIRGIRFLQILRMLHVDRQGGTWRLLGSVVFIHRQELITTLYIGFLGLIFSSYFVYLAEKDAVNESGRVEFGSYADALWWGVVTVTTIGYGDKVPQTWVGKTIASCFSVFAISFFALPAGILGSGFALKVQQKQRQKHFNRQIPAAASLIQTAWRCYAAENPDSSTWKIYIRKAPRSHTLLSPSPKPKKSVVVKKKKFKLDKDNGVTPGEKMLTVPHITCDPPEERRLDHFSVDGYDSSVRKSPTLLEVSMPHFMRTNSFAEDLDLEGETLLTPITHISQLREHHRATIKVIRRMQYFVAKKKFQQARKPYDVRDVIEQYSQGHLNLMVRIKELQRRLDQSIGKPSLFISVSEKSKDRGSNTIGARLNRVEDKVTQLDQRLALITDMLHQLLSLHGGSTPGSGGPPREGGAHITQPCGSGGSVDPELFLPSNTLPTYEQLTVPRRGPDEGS
Briefly: two-electrode voltage clamp in Xenopus oocytes, […]; weak inhibition. Particulars: read-out: % of control current at +40 mV (10 μM).

T3 sequence (Q9NR82 whole entry): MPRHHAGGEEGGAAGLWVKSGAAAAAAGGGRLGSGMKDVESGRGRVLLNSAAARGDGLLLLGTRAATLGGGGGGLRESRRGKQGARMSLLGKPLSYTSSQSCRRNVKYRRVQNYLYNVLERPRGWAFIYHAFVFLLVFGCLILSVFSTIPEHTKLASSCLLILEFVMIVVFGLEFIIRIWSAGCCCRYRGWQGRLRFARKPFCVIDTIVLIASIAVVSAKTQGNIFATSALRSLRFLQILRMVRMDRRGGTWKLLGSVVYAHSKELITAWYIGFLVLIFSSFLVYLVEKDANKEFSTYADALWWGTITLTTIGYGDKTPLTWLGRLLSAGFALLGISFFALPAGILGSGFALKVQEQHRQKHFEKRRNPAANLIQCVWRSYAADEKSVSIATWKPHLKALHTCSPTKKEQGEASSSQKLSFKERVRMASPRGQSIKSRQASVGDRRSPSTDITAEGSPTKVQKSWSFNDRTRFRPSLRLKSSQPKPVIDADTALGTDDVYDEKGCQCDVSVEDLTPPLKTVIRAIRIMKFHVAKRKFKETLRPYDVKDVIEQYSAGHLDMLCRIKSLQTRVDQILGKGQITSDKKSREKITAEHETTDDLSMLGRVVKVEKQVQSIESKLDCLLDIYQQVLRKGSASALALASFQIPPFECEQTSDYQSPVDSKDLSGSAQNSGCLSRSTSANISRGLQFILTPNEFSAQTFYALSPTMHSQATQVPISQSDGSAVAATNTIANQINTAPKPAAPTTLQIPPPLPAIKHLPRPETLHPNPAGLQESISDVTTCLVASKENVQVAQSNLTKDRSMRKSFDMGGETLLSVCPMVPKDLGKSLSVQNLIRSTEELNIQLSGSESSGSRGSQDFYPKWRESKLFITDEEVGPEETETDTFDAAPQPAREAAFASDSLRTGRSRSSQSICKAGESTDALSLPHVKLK
T4 sequence (O43526 whole entry W236L): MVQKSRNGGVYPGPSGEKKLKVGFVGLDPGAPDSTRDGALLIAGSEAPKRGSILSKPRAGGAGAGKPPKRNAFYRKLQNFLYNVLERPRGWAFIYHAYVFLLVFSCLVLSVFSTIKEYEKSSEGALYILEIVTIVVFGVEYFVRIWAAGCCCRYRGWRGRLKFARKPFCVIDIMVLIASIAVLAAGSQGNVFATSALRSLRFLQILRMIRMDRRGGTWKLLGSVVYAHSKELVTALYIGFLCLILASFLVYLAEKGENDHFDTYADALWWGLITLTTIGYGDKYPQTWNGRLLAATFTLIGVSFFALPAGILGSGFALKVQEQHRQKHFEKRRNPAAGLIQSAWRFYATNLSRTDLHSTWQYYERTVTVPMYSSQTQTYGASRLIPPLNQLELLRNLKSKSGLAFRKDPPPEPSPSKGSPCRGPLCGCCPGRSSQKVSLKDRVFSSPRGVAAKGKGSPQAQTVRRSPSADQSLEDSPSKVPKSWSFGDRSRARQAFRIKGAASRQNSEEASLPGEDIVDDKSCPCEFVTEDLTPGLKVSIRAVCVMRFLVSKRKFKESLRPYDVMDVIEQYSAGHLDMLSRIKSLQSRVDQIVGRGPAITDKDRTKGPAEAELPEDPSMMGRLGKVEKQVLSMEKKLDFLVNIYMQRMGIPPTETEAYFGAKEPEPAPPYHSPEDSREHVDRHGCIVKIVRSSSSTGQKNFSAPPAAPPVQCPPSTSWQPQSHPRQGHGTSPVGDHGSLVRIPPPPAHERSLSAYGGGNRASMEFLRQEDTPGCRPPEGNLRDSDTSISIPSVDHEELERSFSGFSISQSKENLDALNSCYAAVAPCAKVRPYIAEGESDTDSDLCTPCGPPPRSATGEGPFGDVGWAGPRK
T2 sequence (O43526 whole entry): as the sequence (O43526 whole entry W236L) above, with L236W counted along it

For orientation: EC50 means the concentration that produces a half-maximal response. Read a high EC50 as a less potent agent. What is called IC50 is the concentration at which inhibition is half-maximal. Read a high IC50 as weaker potency in that assay. In the case of `C[C@H](NC(=O)/C=C/c1ccccc1F)c1ccc2c(c1)N(CC1CC1)CCO2` [(S)-2, (S)-N-[1-(4-Cyclopropylmethyl-3,4-dihydro-2H-benzo[1], [4]oxazin-6-yl)-ethyl]-3-(2-fluoro-phenyl)-acrylamide], the half-maximal effective concentration (EC50) in assay [1] was found to be 220 nM; in assay [2], 170 nM. Further, the remaining activity at 10 µM in assay [3] came out at 676 ± 83.5%; in assay [5], 87.9 ± 2.2%. The same compound showed an IC50 in assay [4] of 8100 nM.
